Consider 6 molecules from US20240026314A1, “POLYPEPTIDES FOR USE IN THE SYNTHESIS OF BIOACTIVE PHENOLIC COMPOUNDS” (priority 2020, published 2024).

The subject of series [1] is colon cancer cell line SW480. Particulars: cited from earlier work.
The subject of series [2] is human leukemia cell line HL60. To be noted: cited from earlier work.
The next series deals with sarcoma S-180. Particulars: cited from earlier work.
Another series has as its system CsOMT1. The experiment in a line: O-methyltransferase enzyme assay with recombinant CsOMT1. The format is biochemical, Cannabis sativa. To be noted: compound as substrate, 1 mM, [14C]-SAM methyl donor, relative to dihydroresveratrol.
The next series deals with CsOMT21. The experiment in a line: O-methyltransferase enzyme assay with recombinant CsOMT21. The format is biochemical, Cannabis sativa. Particulars: 1 mM substrate, [14C]-SAM, 30 min at 37° C.
In the next series the test system is CsOMT6. The experiment in a line: O-methyltransferase enzyme assay with recombinant CsOMT6. The format is biochemical, Cannabis sativa. Particulars: 1 mM substrate, [14C]-SAM, 30 min at 37° C.
Substrate in series [3]: Oc1ccc(CCc2cc(O)cc(O)c2)cc1
The series can be described thus: Enzyme kinetics (Michaelis-Menten) of recombinant CsOMT1 O-methyltransferase with dihydroresveratrol as substrate (FIG. 6C). The format is biochemical, Cannabis sativa. To be noted: other: substrate dihydroresveratrol, standard assay conditions (50 mM Tris-HCl, pH 7.5, 5 mM MgCl2, 10% glycerol, 37° C, [14C]-SAM methyl donor), non-linear regression, Michaelis-M. As to the method:
FIG. 6. Enzymatic methylation activity of CsOMT1. (A) Reaction catalyzed by CsOMT1. (B) Representative chromatogram showing the reaction products resolved by HPLC that illustrates the separation of the methylated dihydroresveratrol from its corresponding substrate (dihydroresveratrol, DHR). The identity of 3-O-methyl-dihydroresveratrol (pinobistilbene) was structurally determined by NMR. (C) Kinetic analysis of CsOMT1. Recombinant CsOMT1 was assayed under standard assay conditions at the indicated concentrations of dihydroresveratrol. Kinetic parameters were determined by non-linear regression analysis using the Michaelis-Menten kinetics model of the SigmaPlot 12.3 software.
Expression of recombinant prenyltransferases in E. coli. In typical aspects, open reading frames encoding soluble aromatic prenyltransferases from bacteria or fungi, for example NphB, HypSC, CloQ, NovQ, Fur7, or PpzP are synthesized commercially. […]
Recombinant protein expression of CsOMTs in E. coli. Open reading frames corresponding to O-methyltransferases from C. sativa are synthesized by commercially. […]
O-methyltransferase enzyme assays. […] The enzymatic products are extracted with four volumes of ethyl acetate and quantified using a scintillation counter. […] The eluted products are detected by absorption at the 210-350 nm range and quantified relative to authentic standards. […]

What is called Km is the concentration of substrate that gives half-maximal velocity.

Where two headings read alike, the source gives them in different places.

Turning to `CC(C)=CCc1cc(/C=C/C(=O)O)cc(CC=C(C)C)c1O` [artepillin C], the apoptotic events result in series [1] and in series [2] was “induce apoptotic events” in each case. Besides, the tumor growth result with sarcoma S-180 (mouse, in vivo, po) is “significant reduction in tumor growth”. Regarding `COc1cc(O)cc(CCc2cccc(O)c2)c1` [batatasin III], in the series with CsOMT1, the “O-methyltransferase activity relative to that with DHR” value is on record as “about 25%”.

On to `O=c1cc(-c2ccc(O)c(O)c2)oc2cc(O)cc(O)c12` [luteolin], for which, in the series with CsOMT21, the methylation of substrate entry is “able to methylate”.

Regarding `CC(C)=CCc1cc(/C=C/C(=O)O)ccc1O` [drupanin], the apoptotic events entry in series [1] (SW480 (Akao et al 2008)) and in series [2] (HL60 (Akao et al 2008)) was “induce apoptotic events” throughout. Further, the tumor growth result in the series on sarcoma S-180 (oral administration, mice with sarcoma S-180 (Mishima et al 2005)) was “significant reduction in tumor growth”. Regarding `O=c1c(O)c(-c2ccc(O)c(O)c2)oc2cc(O)cc(O)c12` [quercetin], the figures for the methylation of substrate entry in the series on CsOMT6 and in the series on CsOMT21 were “preferred methylation” and “able to methylate”, respectively.

B1: CsOMT1 (recombinant O-methyltransferase, SEQ ID NO: 7, PK03555; 6×His-tagged, expressed in E. coli) (Cannabis sativa) (protein)
chain: MEADGEDAVLRGQVEIWKYMLSFADSMALKCAVELQLADIIHSHTSPITLSQIASAIPGATSPDLSCLARIMRLLVRRRIFTQHQKPKSDGEEEEALYGPTHSSRWLLTKTNDHDQLTLAPMILMENDPRLMAPWHCFSRCVKEGGVAFKKAHNGQSIWEFGAENPEINKLFNDAMECTAKVVMKAILSHYSDGGFSDIKSMVDVGGGTGGSISEIVRSYPHIKGINFDLPHVIATAPPYSGVSHVGGDMFRSVPTADAIFMKWILHDWSDEDCVKILKNCRKAIAEESGKVIIVESVLEEESNNNNNNNEVFGDTALMLDLVMVAHTTGGKERTQKQWKTILEQGGFPRYNFIKIKALPSIIEAYPN
On to B1, for which, in series [3], the Km was determined as 22.2 ± 4.6 µM.
